Assay results from publication PMC6934184, “Selective DNA-PKcs inhibition extends the therapeutic index of localized radiotherapy and chemotherapy” (The Journal of Clinical Investigation, 2019).

Target: T1, PDGFRA (PDGFR alpha) (Homo sapiens, UniProt P16234)
T1 construct: purchased Thermo Fisher Scientific (Life Technologies) SelectScreen
Assay: SelectScreen Z'LYTE
Format: biochemical
Summary of the method: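 Percent values come from Thermo SelectScreen profiling of NU5455, combining activity and binding assays. CSF1R was run in Z'LYTE format at Km app ATP, and CAMK1 in Adapta format with ATP listed at 10.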

T1 sequence (P16234 24-1089): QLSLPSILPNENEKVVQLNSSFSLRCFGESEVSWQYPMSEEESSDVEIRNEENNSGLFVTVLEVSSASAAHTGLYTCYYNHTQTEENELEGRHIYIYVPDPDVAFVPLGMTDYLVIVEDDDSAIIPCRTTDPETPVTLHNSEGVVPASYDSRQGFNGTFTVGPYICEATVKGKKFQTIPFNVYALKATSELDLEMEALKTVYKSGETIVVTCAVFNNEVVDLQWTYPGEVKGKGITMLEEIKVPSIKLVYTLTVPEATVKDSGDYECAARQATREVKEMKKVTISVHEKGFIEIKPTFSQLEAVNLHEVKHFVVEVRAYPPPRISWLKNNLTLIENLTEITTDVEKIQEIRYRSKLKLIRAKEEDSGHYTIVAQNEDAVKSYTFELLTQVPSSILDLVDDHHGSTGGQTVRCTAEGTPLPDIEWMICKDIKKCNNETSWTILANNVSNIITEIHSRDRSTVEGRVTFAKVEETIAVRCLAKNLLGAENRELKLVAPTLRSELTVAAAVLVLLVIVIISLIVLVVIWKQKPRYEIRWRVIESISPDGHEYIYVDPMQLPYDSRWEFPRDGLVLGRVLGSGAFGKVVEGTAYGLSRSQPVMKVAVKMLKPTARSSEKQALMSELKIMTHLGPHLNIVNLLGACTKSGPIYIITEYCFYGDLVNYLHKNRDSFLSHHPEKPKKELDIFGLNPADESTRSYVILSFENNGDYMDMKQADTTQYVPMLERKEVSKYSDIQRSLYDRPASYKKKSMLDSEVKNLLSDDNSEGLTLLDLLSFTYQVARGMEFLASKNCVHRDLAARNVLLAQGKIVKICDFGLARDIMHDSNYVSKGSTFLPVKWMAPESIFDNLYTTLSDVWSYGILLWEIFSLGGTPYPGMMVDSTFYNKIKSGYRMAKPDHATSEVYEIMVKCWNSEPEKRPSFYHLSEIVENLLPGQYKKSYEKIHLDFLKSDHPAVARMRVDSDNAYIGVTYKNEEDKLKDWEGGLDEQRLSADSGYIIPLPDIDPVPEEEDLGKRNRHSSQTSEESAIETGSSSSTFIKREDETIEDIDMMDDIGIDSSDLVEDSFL

## CN(C(=O)CN1CCOCC1)c1ccc2sc3c(-c4cccc5c(=O)cc(N6CC7CCC(C6)O7)oc45)cccc3c2c1 [NU5455]
  inhibition at 1 µM: -6.8%
